Laboratory results taken from patent publication US20130072430A1, “METHODS FOR TREATMENT OR PROPHYLAXIS OF KIDNEY OR LIVER DYSFUNCTION” (NPS PHARMACEUTICALS, INC., priority 2010, published 2013).

Tested on: Human patients with short bowel syndrome
Assay: Example 1: kidney diagnostic biomarkers (urea nitrogen, creatinine, GFR) in short bowel syndrome patients, every four weeks for 24 weeks
Format: in vivo
Design: CREATININE (RATE BLANKED) Change from Baseline, Median / GFR, Median / GFR Change from Baseline, Median / UREA NITROGEN, Median / UREA NITROGEN Change from Baseline, Median: unit not given here
Details: 0.05 mg/kg/day; for CREATININE (RATE BLANKED), Median: unit assumed
Procedure: Human patients with short bowel syndrome were divided into three groups: a control group (16 total individuals) to receive placebo, an experimental group (35 total individuals) to receive teduglutide at 0.05 mg/kg/day throughout the study, and an experimental group (32 total individuals) to receive teduglutide at 0.1 mg/kg/day throughout the study. Patients were treated by subcutaneous injection of placebo or the appropriate dose of teduglutide. As individuals with short bowel syndrome are likely to experience associated liver and kidney disease, known biomarkers of liver and kidney function were monitored every four weeks, for 24 weeks. The liver biomarkers tested included total bilirubin, ALT and AST and ALP. The kidney biomarkers tested included urea nitrogen, creatinine and GFR. Before administration of placebo or teduglutide, diagnostic biomarker levels were tested to establish a baseline for each individual.
To visualize the effect of GLP-2 on the levels of the diagnostic biomarkers, the average change from baseline was calculated for the placebo and teduglutide treated groups for each visit after a baseline was established. The average change from baseline of each group is depicted in FIGS. […]. The numerical figures for each diaanostic biomarker at each time point are depicted in Table 1.
The raw data for this sorting is reproduced in Table 2 below.

CC[C@H](C)[C@H](NC(=O)[C@H](Cc1ccccc1)NC(=O)[C@H](CC(=O)O)NC(=O)[C@H](CCCNC(=N)N)NC(=O)[C@H](C)NC(=O)[C@H](C)NC(=O)[C@H](CC(C)C)NC(=O)[C@H](CC(N)=O)NC(=O)[C@H](CC(=O)O)NC(=O)[C@H](CC(C)C)NC(=O)[C@@H](NC(=O)[C@@H](NC(=O)[C@H](CC(N)=O)NC(=O)[C@H](CCSC)NC(=O)[C@H](CCC(=O)O)NC(=O)[C@H](CC(=O)O)NC(=O)[C@H](CO)NC(=O)[C@H](Cc1ccccc1)NC(=O)[C@H](CO)NC(=O)CNC(=O)[C@H](CC(=O)O)NC(=O)CNC(=O)[C@@H](N)Cc1c[nH]cn1)[C@@H](C)O)[C@@H](C)CC)C(=O)N[C@@H](CC(N)=O)C(=O)N[C@@H](Cc1c[nH]c2ccccc12)C(=O)N[C@@H](CC(C)C)C(=O)N[C@H](C(=O)N[C@@H](CCC(N)=O)C(=O)N[C@H](C(=O)N[C@@H](CCCCN)C(=O)N[C@H](C(=O)N[C@H](C(=O)N[C@@H](CC(=O)O)C(=O)O)[C@@H](C)O)[C@@H](C)CC)[C@@H](C)O)[C@@H](C)CC [teduglutide]
CREATININE (RATE BLANKED) Change from Baseline, Mean (SD) (DW4): 1.2 (12.01)
CREATININE (RATE BLANKED) Change from Baseline, Median (DW4): 1.5
CREATININE (RATE BLANKED), Mean (SD) (DW4): 84.8 (30.01)
GFR Change from Baseline, Mean (SD) (DW4): −1.4 (12.80)
GFR Change from Baseline, Median (DW4): −0.6
GFR, Mean (SD) (DW4): 86.1 (36.99)
GFR, Median (DW4): 77.0
UREA NITROGEN Change from Baseline, Mean (SD) (DW4): −0.4 (2.16)
UREA NITROGEN Change from Baseline, Median (DW4): −0.4
UREA NITROGEN, Mean (SD) (DW4): 5.3 (2.09)
UREA NITROGEN, Median (DW4): 4.9
CREATININE (RATE BLANKED), Median (DW4): 80 µmol/L
CREATININE (RATE BLANKED) Change from Baseline, Mean (SD) (DW8): −1.1 (15.51)
CREATININE (RATE BLANKED) Change from Baseline, Median (DW8): 0.0
CREATININE (RATE BLANKED), Mean (SD) (DW8): 81.9 (27.34)
GFR Change from Baseline, Mean (SD) (DW8): −0.1 (19.13)
GFR Change from Baseline, Median (DW8): 1.1
GFR, Mean (SD) (DW8): 89.1 (39.16)
GFR, Median (DW8): 81.6
UREA NITROGEN Change from Baseline, Mean (SD) (DW8): −0.4 (2.02)
UREA NITROGEN Change from Baseline, Median (DW8): −0.3
UREA NITROGEN, Mean (SD) (DW8): 5.3 (1.58)
UREA NITROGEN, Median (DW8): 5.2
CREATININE (RATE BLANKED), Median (DW8): 71 µmol/L
CREATININE (RATE BLANKED) Change from Baseline, Mean (SD) (DW12): 1.8 (16.71)
CREATININE (RATE BLANKED) Change from Baseline, Median (DW12): 8.0
CREATININE (RATE BLANKED), Mean (SD) (DW12): 86.8 (29.41)
GFR Change from Baseline, Mean (SD) (DW12): −3.1 (12.18)
GFR Change from Baseline, Median (DW12): −5.0
GFR, Mean (SD) (DW12): 85.7 (39.48)
GFR, Median (DW12): 76.5
UREA NITROGEN Change from Baseline, Mean (SD) (DW12): −0.8 (1.86)
UREA NITROGEN Change from Baseline, Median (DW12): −0.5
UREA NITROGEN, Mean (SD) (DW12): 4.8 (1.69)
UREA NITROGEN, Median (DW12): 4.4
CREATININE (RATE BLANKED), Median (DW12): 80 µmol/L
CREATININE (RATE BLANKED) Change from Baseline, Mean (SD) (DW16): −1.6 (13.06)
CREATININE (RATE BLANKED) Change from Baseline, Median (DW16): 0.0
CREATININE (RATE BLANKED), Mean (SD) (DW16): 82.1 (29.95)
GFR Change from Baseline, Mean (SD) (DW16): 0.8 (12.08)
GFR Change from Baseline, Median (DW16): 0.9
GFR, Mean (SD) (DW16): 89.8 (38.02)
GFR, Median (DW16): 84.1
UREA NITROGEN Change from Baseline, Mean (SD) (DW16): −0.5 (2.13)
UREA NITROGEN Change from Baseline, Median (DW16): −0.3
UREA NITROGEN, Mean (SD) (DW16): 5.0 (1.73)
UREA NITROGEN, Median (DW16): 4.4
CREATININE (RATE BLANKED), Median (DW16): 79 µmol/L
CREATININE (RATE BLANKED) Change from Baseline, Mean (SD) (DW20): 0.7 (13.11)
CREATININE (RATE BLANKED) Change from Baseline, Median (DW20): 0.0
CREATININE (RATE BLANKED), Mean (SD) (DW20): 85.6 (28.77)
GFR Change from Baseline, Mean (SD) (DW20): −2.0 (16.60)
GFR Change from Baseline, Median (DW20): 0.9
GFR, Mean (SD) (DW20): 83.2 (32.77)
GFR, Median (DW20): 74.0
UREA NITROGEN Change from Baseline, Mean (SD) (DW20): −0.6 (1.94)
UREA NITROGEN Change from Baseline, Median (DW20): −0.3
UREA NITROGEN, Mean (SD) (DW20): 5.0 (1.80)
UREA NITROGEN, Median (DW20): 5.2
CREATININE (RATE BLANKED), Median (DW20): 77.5 µmol/L
CREATININE (RATE BLANKED) Change from Baseline, Mean (SD) (DW24): −2.9 (14.03)
CREATININE (RATE BLANKED) Change from Baseline, Median (DW24): −0.5
CREATININE (RATE BLANKED), Mean (SD) (DW24): 82.8 (31.57)
